Reference: US9796753B2, “N-substituted indenoisoquinolines and syntheses thereof” (Purdue Research Foundation, priority 2005, dated 2017)
Where two headings read alike, the source gives them in different places.

Tests used:
[1] = tested on: CNS SF-539; test: COMPARE screening (NCI human cancer cell line screen), cytotoxicity GI50; assay type: cell-based
Procedure, shortened: (§1)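 Step one: incubate NCI60 cell lines 48 h with test agent (100–0.01 μM, tenfold steps). Step two: SRB dye treatment and OD reading. Step three: percentage growth relative to control plotted against log10 concentration.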

[2] = tested on: colon HCT-116; test: as above; assay type: cell-based
Procedure, shortened: as §1

[3] = tested on: lung HOP-62; test: as above; assay type: cell-based
Procedure, shortened: as §1

[4] = tested on: melanoma UACC-62; test: as above; assay type: cell-based
Procedure, shortened: as §1

[5] = tested on: ovarian OVCAR-3; test: as above; assay type: cell-based
Procedure, shortened: as §1

[6] = tested on: prostate DU-145; test: as above; assay type: cell-based
Procedure, shortened: as §1

[7] = tested on: renal SN12C; test: as above; assay type: cell-based
Procedure, shortened: as §1

[8] = tested on: breast MDA-MB-435; test: as above; assay type: cell-based; details: Homo sapiens
Experimental: COMPARE screening. The compounds described herein were examined for antiproliferative activity against the human cancer cell lines in the National Cancer Institute screen (COMPARE screening), in which the activity of each compound was evaluated with approximately 55 different cancer cell lines of diverse tumor origins. […] Therefore, the MGM value represents an overall assessment of toxicity of the compound across numerous cell lines.

[9] = tested on: all human cancer cell lines successfully tested; test: NCI screen mean graph midpoint (MGM) for growth inhibition; assay type: cell-based
Procedure, shortened: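 NCI60 panel cells exposed to compound at 100, 10, 1, 0.1 and 0.01 μM for 48 h, then sulforhodamine B staining. Percentage growth versus control plotted against log concentration; MGM is the midpoint across all lines tested.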

[10] = tested on: breast MCF-7; test: NCI60 antiproliferative activity, cytotoxicity GI50; assay type: cell-based, human
Experimental: Selected compounds were tested for antiproliferative activity in the National Cancer Institute's developmental therapeutics assay 60 cell line screen (NCI60). The cells were incubated with the tested compounds at 100, 10, 1, 0.1, and 0.01 μM concentrations for 48 h before treatment with sulforhodamine B dye. Optical densities were recorded, and their ratios relative to that of the control were plotted as percentage growth against the log 10 of the tested compound concentrations.

[11] = Homo sapiens, CNSSF-539, read-out: cytotoxicity (GI50) CNS SF-539
[12] = Homo sapiens, HCT-116, read-out: cytotoxicity (GI50) colon HCT-116
[13] = Homo sapiens, HOP-62, read-out: cytotoxicity (GI50) lung HOP-62
[14] = Homo sapiens, UACC-62, read-out: cytotoxicity (GI50) melanoma UACC-62
[15] = Homo sapiens, OVCAR-3, read-out: cytotoxicity (GI50) ovarian OVCAR-3
[16] = Homo sapiens, DU-145, read-out: cytotoxicity (GI50) prostate DU-145
[17] = Homo sapiens, SN12C, read-out: cytotoxicity (GI50) renal SN12C
[18] = MDA-MB-435, read-out: cytotoxicity (GI50) breast MDA-MB-435
[19] = Table 1, average GI50 of all cell lines tested (approximately 55), test range 10^−8 to 10^−4 molar

Cl.NCCCCCCCCn1c2c(c3ccccc3c1=O)C(=O)c1ccccc1-2 [Compound 5ar, 6-(8-Aminooctyl)-5,6-dihydro-5,11-dioxo-11H-indeno[1,2-c]isoquinoline Hydrochloride]
GI50 [1, 11]: 2.82 µM | GI50 [2, 12]: 1.66 µM | GI50 [3, 13]: 2.14 µM | GI50 [4, 14]: 3.8 µM | GI50 [5, 15]: 3470 nM | GI50 [6, 16]: 3.39 µM | GI50 [7, 17]: 3.47 µM | GI50 [8, 18]: 5.62 µM | MGM (mean GI50 across cell lines) [9, 19]: 3710 nM | melting point: 182 to 185 °C

Cl.NCCCCCCCCCn1c2c(c3ccccc3c1=O)C(=O)c1ccccc1-2 [Compound 5as, 6-(9-Aminononyl)-5,6-dihydro-5,11-dioxo-11H-indeno[1,2-c]isoquinoline Hydrochloride]
GI50 [1, 11]: 9.77 µM | GI50 [2, 12]: 6.46 µM | GI50 [3, 13]: 6.76 µM | GI50 [4, 14]: 9.33 µM | GI50 [5, 15]: 9550 nM | GI50 [6, 16]: 6.03 µM | GI50 [7, 17]: 8.51 µM | GI50 [8, 18]: 9.55 µM | MGM (mean GI50 across cell lines) [9, 19]: 8130 nM | melting point: 204 to 207 °C

Cl.NCCCCCCCCCCn1c2c(c3ccccc3c1=O)C(=O)c1ccccc1-2 [Compound 5at, 6-(10-Aminodecyl)-5,6-dihydro-5,11-dioxo-11H-indeno[1,2-c]isoquinoline Hydrochloride]
GI50 [1, 11]: 1.82 µM | GI50 [2, 12]: 2.75 µM | GI50 [3, 13]: 4.79 µM | GI50 [4, 14]: 13.8 µM | GI50 [5, 15]: 10700 nM | GI50 [6, 16]: 3.47 µM | GI50 [7, 17]: 3.31 µM | GI50 [8, 18]: 11.7 µM | MGM (mean GI50 across cell lines) [9, 19]: 5500 nM | melting point: 189 to 192 °C

Cl.NCCCCCCCCCCCn1c2c(c3ccccc3c1=O)C(=O)c1ccccc1-2 [Compound 5au, 6-(11-Aminoundecyl)-5,6-dihydro-5,11-dioxo-11H-indeno[1,2-c]isoquinoline Hydrochloride]
GI50 [1, 11]: 2.04 µM | GI50 [2, 12]: 1.91 µM | GI50 [3, 13]: 2.19 µM | GI50 [4, 14]: 1.7 µM | GI50 [5, 15]: 2090 nM | GI50 [6, 16]: 4.57 µM | GI50 [7, 17]: 2 µM | GI50 [8, 18]: 11 µM | MGM (mean GI50 across cell lines) [9, 19]: 5130 nM | melting point: 125 to 129 °C

COc1cc2c(=O)n(CCCN3CCOCC3)c3c(c2cc1O)C(=O)c1cc2c(cc1-3)OCO2 [Compound 18]
GI50 [1]: 0.3 µM | GI50 [2]: 0.39 µM | GI50 [3]: 0.3 µM | GI50 [4]: 0.3 µM | GI50 [5]: 900 nM | GI50 [6]: 0.3 µM | GI50 [7]: 0.2 µM | MGM (mean GI50 across cell lines) ([9]; Table 6, all human cancer cell lines successfully tested, range 10^−8 to 10^−4 molar, with standard error): 400 ± 5 nM | GI50 [10]: 100 nM

CC[C@@]1(O)C(=O)OCc2c1cc1n(c2=O)Cc2cc3ccccc3nc2-1 [Compound S-1, camptothecin, reference compound]
GI50 ([1]; Homo sapiens, CNSSF-539, CNS SF-539, concentration corresponding to 50% growth inhibition, read-out: cytotoxicity (GI50 in μM) CNS SF-539): 0.01 µM | GI50 ([1]; Homo sapiens, CNSSF-539, Table 1, concentration corresponding to 50% growth inhibition, read-out: cytotoxicity (GI50) CNS SF-539): 0.01 µM | GI50 ([2]; Homo sapiens, HCT-116, Table 1, concentration corresponding to 50% growth inhibition, read-out: cytotoxicity (GI50) colon HCT-116): 0.03 µM | GI50 ([2]; Homo sapiens, HCT-116, Table 6, NCI60, 48 h, sulforhodamine B, read-out: Cytotoxicity (GI50) Colon HCT-116): 0.03 µM | GI50 ([2]; Homo sapiens, colon HCT-116, concentration corresponding to 50% growth inhibition, read-out: cytotoxicity (GI50 in μM) colon HCT-116): 0.03 µM | GI50 ([3]; Homo sapiens, HOP-62, Table 1, concentration corresponding to 50% growth inhibition, read-out: cytotoxicity (GI50) lung HOP-62): 0.01 µM | GI50 ([3]; Homo sapiens, HOP-62, Table 6, NCI60, 48 h, sulforhodamine B, read-out: Cytotoxicity (GI50) lung HOP-62): 0.01 µM | GI50 ([3]; Homo sapiens, lung HOP-62, concentration corresponding to 50% growth inhibition, read-out: cytotoxicity (GI50 in μM) lung HOP-62): 0.01 µM | GI50 ([4]; Homo sapiens, UACC-62, Table 1, concentration corresponding to 50% growth inhibition, read-out: cytotoxicity (GI50) melanoma UACC-62): 0.01 µM | GI50 ([4]; Homo sapiens, UACC-62, Table 6, NCI60, 48 h, sulforhodamine B, read-out: Cytotoxicity (GI50) melanoma UACC-62): 0.01 µM | GI50 ([4]; Homo sapiens, melanoma UACC-62, concentration corresponding to 50% growth inhibition, read-out: cytotoxicity (GI50 in μM) melanoma UACC-62): 0.01 µM | GI50 ([6]; Homo sapiens, DU-145, Table 1, concentration corresponding to 50% growth inhibition, read-out: cytotoxicity (GI50) prostate DU-145): 0.01 µM | GI50 ([6]; Homo sapiens, DU-145, Table 6, NCI60, 48 h, sulforhodamine B, read-out: Cytotoxicity (GI50) prostate DU-145): 0.01 µM | GI50 ([6]; Homo sapiens, prostate DU-145, concentration corresponding to 50% growth inhibition, read-out: cytotoxicity (GI50 in μM) prostate DU-145): 0.01 µM | GI50 ([7]; Homo sapiens, SN12C, Table 1, concentration corresponding to 50% growth inhibition, read-out: cytotoxicity (GI50) renal SN12C): 0.02 µM | GI50 ([7]; Homo sapiens, SN12C, Table 6, NCI60, 48 h, sulforhodamine B, read-out: Cytotoxicity (GI50) renal SN12C): 0.02 µM | GI50 ([7]; Homo sapiens, renal SN12C, concentration corresponding to 50% growth inhibition, read-out: cytotoxicity (GI50 in μM) renal SN12C): 0.02 µM | GI50 ([8]; MDA-MB-435, Table 1, concentration corresponding to 50% growth inhibition, read-out: cytotoxicity (GI50) breast MDA-MB-435): 0.04 µM | GI50 ([8]; breast MDA-MB-435, concentration corresponding to 50% growth inhibition, read-out: cytotoxicity (GI50 in μM) breast MDA-MB-435): 0.04 µM | GI50 ([9]; Homo sapiens, read-out: MGM GI50): 40.5 ± 18.7 nM | MGM (mean graph midpoint for growth inhibition) [9, 19]: .0405 ± 0.0187 µM | GI50 ([9]; all human cancer cell lines successfully tested, read-out: MGM (mean graph midpoint for growth inhibition)): 40.5 ± 18.7 nM | GI50 ([10]; Homo sapiens, MCF7, Table 6, NCI60, 48 h, sulforhodamine B, read-out: Cytotoxicity (GI50) breast MCF-7): 10 nM
